Data reported in US12239654B2, “Compounds and methods for treating neurological and cardiovascular conditions” (Astrocyte Pharmaceuticals, Inc., priority 2016, dated 2025).
“And” between values parts separate entries of the source, which are not always exact repeats. Identical values can stand only once. Like-named read-outs stand apart in the source and are kept apart here.

What was measured:
[1] = In vitro stability of MRS2365 in mouse whole blood; type: in vitro ADME; settings: male, CD-1, EDTA-treated mouse whole blood
Experimental: Whole blood was obtained from male CD-1 mice and human volunteers at Seventh Wave Laboratories (Maryland Heights, MO). Plasma and blood samples were prepared using either EDTA (1 mM) or lithium heparin as anticoagulants.
Blood Stability Determination: MRS2365, enalapril and procaine were solubilized in phosphate-buffered saline, pH 7.4. […] Stability incubations were initiated with the addition of MRS2365 (1 μM final concentration) (FIGS. 5 and 6). Blood sample aliquots were obtained at 0, 1, 2.5, 7.5, 10 and 30 minutes and placed in microtainer tubes. For metabolite scouting analyses, MRS2365 was incubated in heparinized human whole blood at a concentration of 100 μM for 10 or 30 minutes (FIG. 10). In all studies, plasma was immediately prepared by centrifugation at 4° C., placed in microtainer tubes, frozen on dry ice and stored at −80° C. until analysis.
The following table outlines the LC and MS/MS conditions employed (Table 11).
The calibration range for MRS2365 plasma and blood concentration standard curves was 5-5000 ng/mL. Quality control samples were utilized at concentrations of 32, 160, 800 and 4000 ng/mL.

[2] = Stability of MRS2365 incubated in phosphate-buffered saline; type: physicochemical
[3] = Pharmacokinetics of MRS4322 following intravenous administration to neonatal pigs; type: in vivo
Experimental: Animals. Four-week old female neonatal pigs weighing approximately 7.5 Kg were used for this study, supplied by the Department of Bioengineering, University of Pennsylvania (Philadelphia, PA). Animals were equipped with brain microdialysis probes to obtain brain extracellular fluid samples for drug concentration determinations during the study. All studies were conducted under approved University of Pennsylvania IACUC protocols.
Drug Administration: MRS4322 was solubilized in DMSO and then diluted in saline to prepare dosing solution. A 10 mL volume of dosing solution was administered by intravenous bolus administration to each neonatal pig (n=3).
Tissue Sampling: Blood samples were obtained at 0.25, 0.5, 1, 2, 4 and 6 hours post-dose. Brain extracellular fluid samples were obtained from implanted microdialysis probes at 1, 4 and 6 hours post-dose. Whole blood (1 mL) was obtained at each timepoint and placed in vacutainer tubes containing heparin and immediately centrifuged for preparation of plasma; plasma was stored at −80° C. Brain extracellular and cerebrospinal fluid samples were stored at −80° C. At the time of euthanasia (6 hours post-dose), cerebrospinal fluid samples were obtained and frozen, while brain samples from the cortex and hippocampus were obtained by decapitation, rinsed in ice-cold phosphate-buffered saline and weighed. Brain samples were then immediately flash-frozen in liquid nitrogen and stored at −80° C.
The following table outlines the LC and MS/MS conditions employed:
The calibration ranges for all of the MRS4322 matrice's standard curves were 0.1-1000 ng/mL.
For bioanalysis of brain concentrations of MRS4322, brain samples were homogenized in ice-cold phosphate-buffered saline in a 4× dilution. Aliquots of the resulting diluted brain homogenate were treated with acetonitrile and analyzed by LC-MS/MS.

[4] = plasma, MRS4322 0.2 mg/kg IV, individual animals, 0.2 mg/kg

In the case of CSc1nc(N)c2ncn([C@H]3[C@H](O)[C@H](O)[C@]4(COP(=O)(O)OP(=O)(O)O)C[C@H]34)c2n1 [MRS2365], the half-life at 1 μM [1] is reported as 47 min and the “stability when incubated in phosphate-buffered saline” value [2] is reported as “completely stable”.

For CSc1nc(N)c2ncn([C@H]3[C@H](O)[C@H](O)[C@]4(CO)C[C@H]34)c2n1 [MRS4322], the “Brain Concentration by Subject” value ([3]; Brain Cortex, MRS4322 0.2 mg/kg IV, 6 h, individual subjects, 0.2 mg/kg) was 3.80 ng/mL and 6.15 ng/mL, the “Brain Concentration by Subject” value ([3]; Brain Hippocampus, MRS4322 0.2 mg/kg IV, 6 h, individual subjects, 0.2 mg/kg) was 4.56 ng/mL and 5.39 ng/mL and the “Cerebro-Spinal Fluid Concentration by Subject” value ([3]; CSF, MRS4322 0.2 mg/kg IV, 6 h, individual subjects, 0.2 mg/kg) was 1.04 ng/mL and 1.75 ng/mL. For the same molecule, the “Plasma Concentration by Subject” value ([3]; MRS4322 0.2 mg/kg IV, 0 h, individual subjects) was “BLQ”, the “Plasma Concentration Mean” value ([3]; MRS4322 0.2 mg/kg IV, 0 h, mean) was “BLQ” and the “Plasma Concentration by Subject” value ([3]; MRS4322 0.2 mg/kg IV, 0.25 h, individual subjects, 0.2 mg/kg) was 120 ng/mL and 163 ng/mL. For the same molecule, the “Plasma Concentration by Subject” value ([3]; MRS4322 0.2 mg/kg IV, 0.5 h, individual subjects, 0.2 mg/kg) was 54.1 ng/mL and 98.7 ng/mL, the “Plasma Concentration by Subject” value ([3]; MRS4322 0.2 mg/kg IV, 1 h, individual subjects, 0.2 mg/kg) was 51.4 ng/mL and 63.0 ng/mL and the “Plasma Concentration by Subject” value ([3]; MRS4322 0.2 mg/kg IV, 2 h, individual subjects, 0.2 mg/kg) was 27.2 ng/mL and 18.7 ng/mL and 46.8 ng/mL. For the same molecule, the “Plasma Concentration by Subject” value ([3]; MRS4322 0.2 mg/kg IV, 4 h, individual subjects, 0.2 mg/kg) was 21.9 ng/mL and 28.7 ng/mL, the “Plasma Concentration by Subject” value ([3]; MRS4322 0.2 mg/kg IV, 6 h, individual subjects, 0.2 mg/kg) was 15.3 ng/mL and 9.08 ng/mL and 20.8 ng/mL and the “Extracellular Fluid Concentration by Subject” value ([3]; brain ECF (microdialysis), MRS4322 0.2 mg/kg IV, 1 h, individual subjects, 0.2 mg/kg) was 1.55 ng/mL and 0.641 ng/mL and 1.70 ng/mL. For the same molecule, the “Extracellular Fluid Concentration by Subject” value ([3]; brain ECF, MRS4322 0.2 mg/kg IV, 4 h, individual subjects, 0.2 mg/kg) was 0.693 ng/mL and 0.579 ng/mL and 1.36 ng/mL, the “Extracellular Fluid Concentration by Subject” value ([3]; brain ECF, MRS4322 0.2 mg/kg IV, 6 h, individual subjects, 0.2 mg/kg) was 0.602 ng/mL and 0.459 ng/mL and 1.08 ng/mL and the Kp at 6 h ([3]; female, pig, 0.2 mg/kg, IV, 6 hours post-dose, based on mean concentrations in plasma and brain, read-out: brain/plasma ratio of total drug) was ~0.3. For the same molecule, the concentration at 6 h ([3]; female, pig, brain cortex, iv, 0.2 mg/kg, Brain Cortex, MRS4322 0.2 mg/kg IV, 6 h, individual subjects, read-out: Brain Concentration by Subject) was 5.34 ng/mL, the concentration at 6 h ([3]; female, pig, brain cortex, iv, 0.2 mg/kg, Brain Cortex, MRS4322 0.2 mg/kg IV, 6 h, mean, read-out: Brain Concentration Mean) was 5.1 ng/mL and the concentration at 1 h ([3]; female, pig, brain extracellular fluid, iv, 0.2 mg/kg, brain ECF, MRS4322 0.2 mg/kg IV, 1 h, mean, read-out: Extracellular Fluid Concentration Mean) was 1.3 ng/mL. It also gave a concentration at 4 h ([3]; female, pig, brain extracellular fluid, iv, 0.2 mg/kg, brain ECF, MRS4322 0.2 mg/kg IV, 4 h, mean, read-out: Extracellular Fluid Concentration Mean) of 0.941 ng/mL, a concentration at 6 h ([3]; female, pig, brain extracellular fluid, iv, 0.2 mg/kg, brain ECF, MRS4322 0.2 mg/kg IV, 6 h, mean, read-out: Extracellular Fluid Concentration Mean) of 0.714 ng/mL and a concentration at 6 h ([3]; female, pig, brain hippocampus, iv, 0.2 mg/kg, Brain Hippocampus, MRS4322 0.2 mg/kg IV, 6 h, individual subjects, read-out: Brain Concentration by Subject) of 6.47 ng/mL. It also gave a concentration at 6 h ([3]; female, pig, brain hippocampus, iv, 0.2 mg/kg, Brain Hippocampus, MRS4322 0.2 mg/kg IV, 6 h, mean, read-out: Brain Concentration Mean) of 5.47 ng/mL, a concentration at 6 h ([3]; female, pig, cerebrospinal fluid, iv, 0.2 mg/kg, CSF, MRS4322 0.2 mg/kg IV, 6 h, individual subjects, read-out: Cerebro-Spinal Fluid Concentration by Subject) of 1.37 ng/mL and a concentration at 6 h ([3]; female, pig, cerebrospinal fluid, iv, 0.2 mg/kg, CSF, MRS4322 0.2 mg/kg IV, 6 h, mean, read-out: Cerebro-Spinal Fluid Concentration Mean) of 1.39 ng/mL. The Tmax ([3]; female, pig, plasma, MRS4322 0.2 mg/kg IV, mean, read-out: Tmax Mean) was 15 min, the concentration at 0.25 h ([3]; female, pig, plasma, iv, 0.2 mg/kg, MRS4322 0.2 mg/kg IV, 0.25 h, individual subjects, read-out: Plasma Concentration by Subject) was 133 ng/mL and the concentration at 0.25 h ([3]; female, pig, plasma, iv, 0.2 mg/kg, MRS4322 0.2 mg/kg IV, 0.25 h, mean, read-out: Plasma Concentration Mean) was 139 ng/mL. It also gave a concentration at 0.5 h ([3]; female, pig, plasma, iv, 0.2 mg/kg, MRS4322 0.2 mg/kg IV, 0.5 h, individual subjects, read-out: Plasma Concentration by Subject) of 85.3 ng/mL, a concentration at 0.5 h ([3]; female, pig, plasma, iv, 0.2 mg/kg, MRS4322 0.2 mg/kg IV, 0.5 h, mean, read-out: Plasma Concentration Mean) of 79.4 ng/mL and a concentration at 1 h ([3]; female, pig, plasma, iv, 0.2 mg/kg, MRS4322 0.2 mg/kg IV, 1 h, individual subjects, read-out: Plasma Concentration by Subject) of 58.9 ng/mL. For the same molecule, the concentration at 1 h ([3]; female, pig, plasma, iv, 0.2 mg/kg, MRS4322 0.2 mg/kg IV, 1 h, mean, read-out: Plasma Concentration Mean) was 57.8 ng/mL, the concentration at 2 h ([3]; female, pig, plasma, iv, 0.2 mg/kg, MRS4322 0.2 mg/kg IV, 2 h, mean) was 30.9 ng/mL and the concentration at 4 h ([3]; female, pig, plasma, iv, 0.2 mg/kg, MRS4322 0.2 mg/kg IV, 4 h, individual subjects, read-out: Plasma Concentration by Subject) was 23.3 ng/mL. The concentration at 4 h ([3]; female, pig, plasma, iv, 0.2 mg/kg, MRS4322 0.2 mg/kg IV, 4 h, mean, read-out: Plasma Concentration Mean) was 24.6 ng/mL, the concentration at 6 h ([3]; female, pig, plasma, iv, 0.2 mg/kg, MRS4322 0.2 mg/kg IV, 6 h, mean, read-out: Plasma Concentration Mean) was 15.1 ng/mL and the half-life ([3]; female, pig, plasma, iv, 0.2 mg/kg, MRS4322 0.2 mg/kg IV, mean) was 205 min. For the same molecule, the AUC(0-inf) ([3]; female, pig, plasma, iv, 0.2 mg/kg, plasma, MRS4322 0.2 mg/kg IV, individual animals, read-out: AUCINF) was 344 ng·h/mL, the AUC(0-t) ([3]; female, pig, plasma, iv, 0.2 mg/kg, plasma, MRS4322 0.2 mg/kg IV, individual animals, read-out: AUClast) was 238 ng·h/mL and the C0 ([3]; female, pig, plasma, iv, 0.2 mg/kg, plasma, MRS4322 0.2 mg/kg IV, individual animals, read-out: C0) was 207 ng/mL. The clearance ([3]; female, pig, plasma, iv, 0.2 mg/kg, plasma, MRS4322 0.2 mg/kg IV, individual animals, read-out: Cl) was 9.68 mL/min/kg, the Cmax ([3]; female, pig, plasma, iv, 0.2 mg/kg, plasma, MRS4322 0.2 mg/kg IV, individual animals, read-out: Cmax) was 133 ng/mL and the Vd ([3]; female, pig, plasma, iv, 0.2 mg/kg, plasma, MRS4322 0.2 mg/kg IV, individual animals, read-out: Vz) was 4.04 L/kg. The AUC(0-inf) ([3]; female, pig, plasma, iv, 0.2 mg/kg, plasma, MRS4322 0.2 mg/kg IV, mean, read-out: AUCINF Mean) was 326 ng·h/mL, the AUC(0-t) ([3]; female, pig, plasma, iv, 0.2 mg/kg, plasma, MRS4322 0.2 mg/kg IV, mean, read-out: AUClast Mean) was 249 ng·h/mL and the C0 ([3]; female, pig, plasma, iv, 0.2 mg/kg, plasma, MRS4322 0.2 mg/kg IV, mean, read-out: C0 Mean) was 248 ng/mL. The clearance ([3]; female, pig, plasma, iv, 0.2 mg/kg, plasma, MRS4322 0.2 mg/kg IV, mean, read-out: Cl Mean) was 10.8 mL/min/kg, the Cmax ([3]; female, pig, plasma, iv, 0.2 mg/kg, plasma, MRS4322 0.2 mg/kg IV, mean, read-out: Cmax Mean) was 139 ng/mL and the Vd ([3]; female, pig, plasma, iv, 0.2 mg/kg, plasma, MRS4322 0.2 mg/kg IV, mean, read-out: Vz Mean) was 3.05 L/kg. The Tmax ([3]; plasma, MRS4322 0.2 mg/kg IV, individual animals) was 15 min, the AUCINF [3, 4] was 233 ng·h/mL and 401 ng·h/mL and the AUClast [3, 4] was 203 ng·h/mL and 307 ng·h/mL. For the same molecule, the C0 [3, 4] was 286 ng/mL and 289 ng/mL, the Cl [3, 4] was 14.3 mL/min/kg and 8.31 mL/min/kg and the Cmax [3, 4] was 120 ng/mL and 163 ng/mL. For the same molecule, the “Half Life” value [3, 4] was 4.82 h and 2.31 h and 3.13 h and the Vz [3, 4] was 2.86 L/kg and 2.25 L/kg.
